Measurements reported in patent publication US20240050408A1, “USE OF MGLUR5 ANTAGONISTS FOR TREATING AMPHETAMINE ADDICTION” (NOVARTIS AG, priority 2020, published 2024).

Experiments:
Type in all cases: in vivo, human
[1] = tested on: patients with Cocaine Use Disorder (CUD); assay: Phase 2 trial: alcohol consumption by TLFB; conditions: difference vs placebo not statistically significant (P=0.072)
Experimental: (§1) This study was conducted in patients with CUD and consisted of about a 21-day screening period followed by a 7-day baseline period, a 98-day outpatient treatment period, and an end of study visit evaluation about 14 days after the last study drug administration ([…]. A). Study treatment was taken twice daily (separated by about 12-hour intervals) with food. For patients in the mavoglurant arm [mavoglurant (free form) provided as modified release formulation (e.g. in WO2014/199316)], an uptitration regimen was performed for 14 days (50 mg b.i.d. from Days 1 to 7 and 100 mg b.i.d from Days 8 to 14) and was followed by 200 mg b.i.d for 84 days.
Alcohol consumption was recorded by the subjects using TLFB. The number of drinks was recorded daily. […] The past consumption of alcohol was the proportion of alcohol over the 28 days preceding the screening visit, which was assessed retrospectively using the TLFB. […]
Patient Reported Outcome included: • 1. The TLFB cocaine: is a cocaine assessment method that obtains estimates of daily cocaine intake and has been evaluated with clinical and nonclinical populations. […] The TLFB alcohol: is a drinking assessment method that obtains estimates of daily drinking and has been evaluated with clinical and nonclinical populations. […]

[2] = tested on: patients with Cocaine Use Disorder (CUD); assay: Phase 2 trial: abstinence in the last weeks of treatment (TLFB and negative urine BE); conditions: self-report (TLFB) and negative urine BE; placebo 16.7%; P=0.040
Experimental: as §1
A subject was considered abstinent the last x weeks of treatment if they completed the 14-week treatment period and were abstinent the last x weeks (with x=1, 2, 3. . . . , 14).
A subject was considered abstinent the last x weeks of treatment if they completed the 14-week treatment period and were abstinent the last x weeks (with x=1, 2, 3. . . . , 14). […] Binary response variables based on abstinence were calculated.
This analysis was added in order to inform on abstinence rates as this is an important endpoint in Phase III CUD studies. Binary response variables based on abstinence were calculated.

[3] = tested on: patients with Cocaine Use Disorder (CUD); assay: Phase 2 trial: anxiety (STAI) and depressive symptoms (BDI-II); conditions: for anxiety symptoms by STAI: difference vs placebo not statistically significant (P=0.144 S-Anxiety, P=0.425 T-Anxiety); for depressive symptoms by BDI: difference vs placebo not statistically significant (P=0.696 BDI-II)
Experimental: as §1
Patient Reported Outcome included: • 1. The TLFB cocaine: is a cocaine assessment method that obtains estimates of daily cocaine intake and has been evaluated with clinical and nonclinical populations. Using a calendar, people provide retrospective estimates of their daily cocaine use over a specified time period that can vary up to 12 months from the interview date. Several memory aids can be used to enhance recall (e.g., calendar; key dates serve as anchors for reporting cocaine use). […] The method is recommended for use when relatively precise estimates of cocaine use are necessary, especially when a complete use pre-posttreatment). Clinically, the TLFB can be used to provide feedback about one's cocaine consumption in an effort to increase a client's motivation to change. • 2. The TLFB alcohol: is a drinking assessment method that obtains estimates of daily drinking and has been evaluated with clinical and nonclinical populations. Using a calendar, people provide retrospective estimates of their daily drinking over a specified time period that can vary up to 12 months from the interview date. Several memory aids can be used to enhance recall (e.g., calendar; key dates serve as anchors for reporting drinking; standard drink conversion). […] The method is recommended for use when relatively precise estimates of drinking are necessary, especially when a complete picture of drinking days (i.e., high- and low-risk days) is needed (evaluating drinking pre/post-treatment). Clinically, the TLFB can be used to provide feedback about one's drinking in an effort to increase a client's motivation to change. Overall, the Alcohol TLFB method provides a relatively accurate portrayal of drinking, and has both clinical and research utility. • 3. The BDI-II: is instrument endorsed by the National Institute for Health and Clinical Excellence for use in primary care in measuring baseline depression severity and responsiveness to treatment. • 4. The STAI: is an assessment tool for measuring the presence and severity of current symptoms of anxiety and a generalized propensity to be anxious. […]

COC(=O)N1CC[C@@H]2[C@H]1CCC[C@@]2(O)C#Cc1cccc(C)c1 [mavoglurant, (-)-(3aR,4S,7aR)-4-Hydroxy-4-m-tolylethynyl-octahydro-indole-1-carboxylic acid methyl ester]
alcohol consumption by TLFB [1]: reduced alcohol consumption | proportion of patients with cocaine abstinence in the last 3 weeks of the study [2]: 41.4% | anxiety symptoms by STAI [3]: reduced nonsignificantly | anxiety symptoms by STAI ([3]; listed as Mavoglurant): reduced anxiety and depressive symptoms | depressive symptoms by BDI [3]: reduced nonsignificantly | depressive symptoms by BDI ([3]; listed as Mavoglurant): reduced anxiety and depressive symptoms
